Source: patent US20230365561A1, “BETA-LACTAMASE INHIBITORS AND THEIR PREPARATION” (NINGXIA ACADEMY OF AGRICUL TURE AND FORESTRY SCIENCES, priority 2020, published 2023)
Counter-ions that a name gives are not always drawn. Like-named read-outs stand apart in the source and are kept apart here.

Key:
Assay type in all cases: cell-based
[1] = tested on: K. pneumoniae 700603 (strain 4); assay: MIC by broth microdilution (alone and in combination with meropenam), strain 4; conditions: Klebsiella pneumoniae, compound alone
Protocol: (§1) Compounds of the present invention alone, meropenam (MER) alone, and as a combination with test antibiotic (meropenam) were tested for antimicrobial activity by determing minimum inhibitory concentration (MIC, mg/L) using the broth microdilution method according to the guidelines of the Clinical Laboratories and Stansards Insitute (“Methods for Dilution Antimicrobial Suscetibility Tests for Bacterial that Grow Aerobiclly”, Approved standard, […]., Clinical and Laboratories Stanards Institute (CLSI) Document M7-A8, Wayne, Pa., USA, 2009). Meropenam as a test antibiotic compound was dissolved in DMSO. Meropenam was then diluted in microbial growth medium (Mueller-Hinton Broth II, cation adjusted) resulting in a final concention range of 0.125-64 mg/L in serial two-fold dilution. In all cases the filnal DMSO concentraion was less than 0.5%. Bacteria were added to 96-well microtitre plates containing the serial two-fold dilutions of the compoumds; the final cell density was appoximately 5x10^5 colony forming units/mL (CFU/mL). Plates were incubated at 37° C. for 18-24 hours and read visually. The MIC, i.e. the lowest concentration of the test compound that inhibited visible growth of the bacteria, was recorded. The same assay conditions were used when the compounds of present invention alone, and as a combination with test meropenam antibiotic compound was tested for minmum inhibitory concentration (MIC, mg/L). Whileest meropenam was serially diluted as descrribed above, a constant concentration of the present invention of 4 µg/mL was used.
(§2) Bacterial strains that were used to evaluate the antimicrobial activity using the MIC determination included but were not limited to E. coli clinical isolate (strain 1), E. coli 8739 (strain 2), K. pneumoniae clinical isolate (strain 3), K. pneumoniae 700603 (strain 4), E. cloacae clinical isolate (strain 5), E. cloacae 700323 (strain 6), A. baumannii clinical isolate (strain 7), A. baumannii 19606 (strain 8), P. aeruginosa clinical isolate (strain 9), P. aeruginosa 9027 (strain 10).

[2] = tested on: E. cloacae clinical isolate (strain 5); assay: MIC by broth microdilution (alone and in combination with meropenam), strain 5; conditions: Enterobacter cloacae, compound alone
Protocol: as §1, §2

[3] = tested on: K. pneumoniae clinical isolate (strain 3); assay: MIC by broth microdilution (alone and in combination with meropenam), strain 3; conditions: Klebsiella pneumoniae, compound alone
Protocol: as §1, §2

[4] = tested on: P. aeruginosa 9027 (strain 10); assay: MIC by broth microdilution (alone and in combination with meropenam), strain 10; conditions: Pseudomonas aeruginosa, compound alone
Protocol: as §1, §2

[5] = tested on: E. cloacae 700323 (strain 6); assay: MIC by broth microdilution (alone and in combination with meropenam), strain 6; conditions: Enterobacter cloacae, compound alone
Protocol: as §1, §2

[6] = tested on: A. baumannii clinical isolate (strain 7); assay: MIC by broth microdilution (alone and in combination with meropenam), strain 7; conditions: Acinetobacter baumannii, compound alone
Protocol: as §1, §2

[7] = tested on: A. baumannii 19606 (strain 8); assay: MIC by broth microdilution (alone and in combination with meropenam), strain 8; conditions: Acinetobacter baumannii, compound alone
Protocol: as §1, §2

[8] = tested on: E. coli 8739 (strain 2); assay: MIC by broth microdilution (alone and in combination with meropenam), strain 2; conditions: Escherichia coli, compound alone
Protocol: as §1, §2

[9] = tested on: P. aeruginosa clinical isolate (strain 9); assay: MIC by broth microdilution (alone and in combination with meropenam), strain 9; conditions: Pseudomonas aeruginosa, compound alone
Protocol: as §1, §2

[10] = tested on: E. coli clinical isolate (strain 1); assay: MIC by broth microdilution (alone and in combination with meropenam), strain 1; conditions: Escherichia coli, compound alone
Protocol: as §1, §2

[11] = read-out: MIC, antibacterial activity of example alone

Measured: MIC

N=C(N)NOCCC(=O)NC(=N)[C@@H]1CC[C@@H]2CN1C(=O)N2OS(=O)(=O)O [Ex.43, (2S,5R)-2-(N-(3-(guanidinooxy)propanoyl)carbamimidoyl)-7-oxo-1,6-diazabicyclo[3.2.1]octan-6-yl Hydrogen Sulfate]
> 64 µg/mL: [1]; [11] | [2]; [11] | [3]; [11] | [4]; [11] | [5]; [11] | [6]; [11] | [7]; [11] | [8]; [11] | [9]; [11] | [10]; [11]

N=C(NC(=O)c1cccnn1)[C@@H]1CC[C@@H]2CN1C(=O)N2OS(=O)(=O)O [Ex.12, (2S,5R)-7-oxo-2-(N-(pyridazine-3-carbonyl)carbamimidoyl)-1,6-diazabicyclo[3.2.1]octan-6-yl Hydrogen Sulfate]
> 64 µg/mL: [1]; [11] | [2]; [11] | [3]; [11] | [4]; [11] | [5]; [11] | [6]; [11] | [7]; [11] | [8]; [11] | [9]; [11] | [10]; [11]

N=C(NC(=O)CN)[C@@H]1CC[C@@H]2CN1C(=O)N2OS(=O)(=O)[O-].[Na+] [Ex.15, Sodium (2S,5R)-2-(N-glycylcarbamimidoyl)-7-oxo-1,6-diazabicyclo[3.2.1]octan-6-yl Sulfate]
> 64 µg/mL: [1]; [11] | [2]; [11] | [3]; [11] | [4]; [11] | [5]; [11] | [6]; [11] | [7]; [11] | [8]; [11] | [9]; [11] | [10]; [11]

N=C(N)NOCCCC(=O)NC(=N)[C@@H]1CC[C@@H]2CN1C(=O)N2OS(=O)(=O)O [Ex.47, (2S,5R)-2-(N-(4-(guanidinooxy)butanoyl)carbamimidoyl)-7-oxo-1,6-diazabicyclo[3.2.1]octan-6-yl Hydrogen Sulfate]
> 64 µg/mL: [1]; read-out: MIC | [2]; read-out: MIC | [3]; read-out: MIC | [4]; read-out: MIC | [5]; read-out: MIC | [6]; read-out: MIC | [7]; read-out: MIC | [8]; read-out: MIC | [9]; read-out: MIC | [10]; read-out: MIC

N=C(NC(=O)Cc1ncccn1)[C@@H]1CC[C@@H]2CN1C(=O)N2OS(=O)(=O)[O-].[Na+] [Ex.25, Sodium (2S,5R)-7-oxo-2-(N-(2-(pyrimidin-2-yl)acetyl)carbamimidoyl)-1,6-diazabicyclo[3.2.1]octan-6-yl Sulfate]
> 64 µg/mL: [1]; [11] | [2]; [11] | [3]; [11] | [4]; [11] | [5]; [11] | [6]; [11] | [7]; [11] | [8]; [11] | [9]; [11] | [10]; [11]

N=C(NC(=O)c1ccccc1)[C@@H]1CC[C@@H]2CN1C(=O)N2OS(=O)(=O)O [Ex.2, (2S,5R)-2-(N-benzoylcarbamimidoyl)-7-oxo-1,6-diazabicyclo[3.2.1]octan-6-yl Hydrogen Sulfate]
> 64 µg/mL: [1]; [11] | [2]; [11] | [3]; [11] | [4]; [11] | [5]; [11] | [6]; [11] | [7]; [11] | [8]; [11] | [9]; [11] | [10]; [11]

N=C(NC(=O)c1ccc(F)cc1)[C@@H]1CC[C@@H]2CN1C(=O)N2OS(=O)(=O)O [Ex.17, (2S,5R)-2-(N-(4-fluorobenzoyl)carbamimidoyl)-7-oxo-1,6-diazabicyclo[3.2.1]octan-6-yl Hydrogen Sulfate]
> 64 µg/mL: [1]; [11] | [2]; [11] | [3]; [11] | [4]; [11] | [5]; [11] | [6]; [11] | [7]; [11] | [8]; [11] | [9]; [11] | [10]; [11]

CC(=O)N1CCC(C(=O)NC(=N)[C@@H]2CC[C@@H]3CN2C(=O)N3OS(=O)(=O)[O-])CC1.[Na+] [Ex.4, Sodium (2S,5R)-2-(N-(1-acetylpiperidine-4-carbonyl)carbamimidoyl)-7-oxo-1,6-diazabicyclo[3.2.1]octan-6-yl Sulfate]
> 64 µg/mL: [1]; [11] | [2]; [11] | [3]; [11] | [4]; [11] | [5]; [11] | [6]; [11] | [7]; [11] | [8]; [11] | [9]; [11] | [10]; [11]

N=C(NC(=O)Cc1cccnc1)[C@@H]1CC[C@@H]2CN1C(=O)N2OS(=O)(=O)[O-].[Na+] [Ex.34, Sodium (2S,5R)-7-oxo-2-(N-(2-(pyridin-3-yl)acetyl)carbamimidoyl)-1,6-diazabicyclo[3.2.1]octan-6-yl sulfate]
> 64 µg/mL: [1]; [11] | [2]; [11] | [3]; [11] | [4]; [11] | [5]; [11] | [6]; [11] | [7]; [11] | [8]; [11] | [9]; [11] | [10]; [11]

N=C(NC(=O)c1nccs1)[C@@H]1CC[C@@H]2CN1C(=O)N2OS(=O)(=O)[O-].[Na+] [Ex.23, Sodium (2S,5R)-7-oxo-2-(N-(thiazole-2-carbonyl)carbamimidoyl)-1,6-diazabicyclo[3.2.1]octan-6-yl Sulfate]
> 64 µg/mL: [1]; [11] | [2]; [11] | [3]; [11] | [4]; [11] | [5]; [11] | [6]; [11] | [7]; [11] | [8]; [11] | [9]; [11] | [10]; [11]

CC(C)(C)OC(=O)N1CCC(C(=O)NC(=N)[C@@H]2CC[C@@H]3CN2C(=O)N3OS(=O)(=O)[O-])CC1.[Na+] [Ex.14, Sodium (2S,5R)-2-(N-(1-(tert-butoxycarbonyl)piperidine-4-carbonyl)carbamimidoyl)-7-oxo-1,6-diazabicyclo[3.2.1]octan-6-yl Sulfate]
> 64 µg/mL: [1]; [11] | [2]; [11] | [3]; [11] | [4]; [11] | [5]; [11] | [6]; [11] | [7]; [11] | [8]; [11] | [9]; [11] | [10]; [11]

N=C(NC(=O)c1cnco1)[C@@H]1CC[C@@H]2CN1C(=O)N2OS(=O)(=O)[O-].[Na+] [Ex.21, Sodium (2S,5R)-2-(N-(oxazole-5-carbonyl)carbamimidoyl)-7-oxo-1,6-diazabicyclo[3.2.1]octan-6-yl Sulfate]
> 64 µg/mL: [1]; [11] | [2]; [11] | [3]; [11] | [4]; [11] | [5]; [11] | [6]; [11] | [7]; [11] | [8]; [11] | [9]; [11] | [10]; [11]

CCC(=O)NC(=N)[C@@H]1CC[C@@H]2CN1C(=O)N2OS(=O)(=O)[O-].[Na+] [Ex.3, Sodium (2S,5R)-7-oxo-2-(N-propionylcarbamimidoyl)-1,6-diazabicyclo[3.2.1]octan-6-yl Sulfate]
> 64 µg/mL: [1]; [11] | [2]; [11] | [3]; [11] | [4]; [11] | [5]; [11] | [6]; [11] | [7]; [11] | [8]; [11] | [9]; [11] | [10]; [11]

CN1CCC[C@@H](C(=O)NC(=N)[C@@H]2CC[C@@H]3CN2C(=O)N3OS(=O)(=O)[O-])C1.[Na+] [Ex.29, Sodium (2S,5R)-2-(N-((R)-1-methylpiperidine-3-carbonyl)carbamimidoyl)-7-oxo-1,6-diazabicyclo[3.2.1]octan-6-yl Sulfate]
> 64 µg/mL: [1]; [11] | [2]; [11] | [3]; [11] | [4]; [11] | [5]; [11] | [6]; [11] | [7]; [11] | [8]; [11] | [9]; [11] | [10]; [11]
